{"source": "patent US20100212036A1", "about": "“SELECTIVE INHIBITION OF HISTONE DEACETYLASES 1 AND 2 AS A TREATMENT FOR CARDIAC HYPERTROPHY” (priority 2008, published 2010)", "key": {"cardiomyocytes": {"system": "cardiomyocytes", "settings": "treatment of cardiomyocytes with HDAC inhibitors; cited from earlier work"}, "PPARα-responsive genes": {"system": "PPARα-responsive genes", "assay": "Real-time RT-PCR of PPARα target genes in hearts of wild-type and HDAC3cKO mice after Wy14,643", "type": "in vivo", "settings": "50 mg/kg single intraperitoneal injection", "procedure": "FIGS. 5A-E. Aberrant expression of cardiac metabolism genes from cardiac deletion of HDAC3. (FIG. 5A) Microarray analysis was performed at 5 weeks and gene ontology analysis was performed with PANTHER. […] (FIG. 5B) PPAR-regulated mitochondrial uncoupling genes are increased in HDAC3cKO mice. […] (FIG. 5E) Glucose metabolism is decreased in HDAC3cKO hearts. For (FIGS. 5B-E), real-time RT-PCR was performed from LV RNA of 6-week-old wild-type and HDAC3cKO mice in absence or presence of Wy14,643. Transcript levels were normalized to 18S Ribosomal RNA. KO, HDAC3cKO. Error bars represent standard deviation.\nRT-PCR and microarray. For all gene expression analyses from wild-type and HDAC3cKO mice, 4 wild-type and 4 HDAC3cKO hearts were isolated and analyzed. Total RNA was purified using TRIzol reagent according to manufacturer's instructions. For RT-PCR, total RNA was used for reverse transcriptase using random hexamer primers. Primer sequences are available upon request. Quantitative real time PCR was performed using Taqman probes purchased from ABI. For microarray, RNA was extracted from either 3 wild-type or HDAC3cKO hearts and subsequently pooled prior to analysis. Microarray analysis was performed using the Mouse Genome 430 2.0 Array (Affymetrix). All heart RNA was from ventricle tissue only. Microarray analysis was performed by the UT Southwestern Microarray Core Facility using the Mouse Genome 430 2.0 Array (Affymetrix) as described (Davis et al., 2006)\nAnimal studies. For fasting studies, male HDAC3cKO and wild-type littermates were fasted for 24 hrs. After 24 hrs, mice were sacrificed, hearts extracted, and prepared for Oil Red O staining. Control mice were allowed standard chow ad libitum. Wy14,643 (Biomol) (50 mg/kg body weight) in 50% DMSO/saline was administered as a single intraperitoneal injection. Control littermates were administered vehicle and hearts were extracted 8 hrs after injection. All animal studies were approved by the IACUC of the University of Texas Southwestern Medical Center."}, "HDAC3": {"system": "HDAC3", "assay": "HDAC3 expression in settings of hypertrophy and failure", "type": "in vivo", "settings": "following infusion; data not shown"}, "[1]": {"settings": "hearts 8 hrs after injection, vs baseline"}, "[2]": {"settings": "HDAC3cKO mice, LV RNA, hearts extracted 8 hrs after injection, vs baseline"}}, "data": [{"compound": "CC(/C=C/C(=O)NO)=C\\[C@@H](C)C(=O)c1ccc(N(C)C)cc1", "note": "[TSA]", "values": [{"measurement": "activation of the fetal gene program", "setting": "cardiomyocytes", "value": "dose-dependentle block activation"}, {"measurement": "hypertrophic response", "setting": "cardiomyocytes", "value": "block the hypertrophic response"}]}, {"compound": "CCCC(CCC)C(=O)O", "note": "[VPA]", "values": [{"measurement": "activation of the fetal gene program", "setting": "cardiomyocytes", "value": "dose-dependentle block activation"}, {"measurement": "hypertrophic response", "setting": "cardiomyocytes", "value": "block the hypertrophic response"}]}, {"compound": "Cc1cccc(Nc2cc(Cl)nc(SCC(=O)O)n2)c1C", "note": "[Wy14,643]", "values": [{"measurement": "CD36 transcript level", "setting": "PPARα-responsive genes; [1]", "value": "up-regulated"}, {"measurement": "FACS (Acsl1) transcript level", "setting": "PPARα-responsive genes; [1]", "value": "up-regulated"}, {"measurement": "FATP (Slc27a1) transcript level", "setting": "PPARα-responsive genes; [1]", "value": "up-regulated"}, {"measurement": "ACOX (acyl-CoA oxidase 1) expression", "setting": "PPARα-responsive genes; HDAC3cKO hearts", "value": "further up-regulated"}, {"measurement": "GLUT4 expression", "setting": "PPARα-responsive genes; HDAC3cKO mice", "value": "further decreased"}, {"measurement": "PDK4 expression", "setting": "PPARα-responsive genes; HDAC3cKO mice", "value": "further elevated"}, {"measurement": "UCP2 transcript level", "setting": "PPARα-responsive genes; [2]", "value": "induction was increased"}, {"measurement": "UCP3 transcript level", "setting": "PPARα-responsive genes; [2]", "value": "induction was increased"}, {"measurement": "mCPT-1 transcript levels", "setting": "PPARα-responsive genes; wild-type or HDAC3cKO hearts", "value": "had no effect"}]}, {"compound": "CC(C)NCC(O)c1ccc(O)c(O)c1", "note": "(stereo not drawn) [isoproterenol]", "values": [{"measurement": "HDAC3 expression levels", "setting": "HDAC3", "value": "decreased"}]}, {"compound": "angiotensin", "values": [{"measurement": "HDAC3 expression levels", "setting": "HDAC3", "value": "not significantly altered"}]}]}
